Data taken from US8883963B2 (Cadila Healthcare Limited, priority 2007, dated 2014).

Columns and labels:
[1] = Stability in simulated gastric fluid; assay type: in vitro ADME; settings: 2 μM peptidomimetic, simulated gastric fluid pH 1.5, 37° C.; for half-life at 2 μM: read-out: half-life (t1/2) when incubated with simulated gastric fluid
Procedure: (§1) Reactions were terminated by the addition of TFA/H2O (15 mL, 10% (v/v)). […] The column was equilibrated with TFA/H20, at a flow rate of 1 mL/min.

[2] = biological target: T1, Human GLP-1 receptor (Homo sapiens, UniProt P43220); experiment: In vitro Human GLP-1 R agonist activity (cyclic AMP determination) in CHO/human GLP1R cells; assay type: cell-based
T1 construct: The full-length cDNA was cloned in pcDNA3.1(+); expressed in transfected cells
T1 sequence (P43220 24-463): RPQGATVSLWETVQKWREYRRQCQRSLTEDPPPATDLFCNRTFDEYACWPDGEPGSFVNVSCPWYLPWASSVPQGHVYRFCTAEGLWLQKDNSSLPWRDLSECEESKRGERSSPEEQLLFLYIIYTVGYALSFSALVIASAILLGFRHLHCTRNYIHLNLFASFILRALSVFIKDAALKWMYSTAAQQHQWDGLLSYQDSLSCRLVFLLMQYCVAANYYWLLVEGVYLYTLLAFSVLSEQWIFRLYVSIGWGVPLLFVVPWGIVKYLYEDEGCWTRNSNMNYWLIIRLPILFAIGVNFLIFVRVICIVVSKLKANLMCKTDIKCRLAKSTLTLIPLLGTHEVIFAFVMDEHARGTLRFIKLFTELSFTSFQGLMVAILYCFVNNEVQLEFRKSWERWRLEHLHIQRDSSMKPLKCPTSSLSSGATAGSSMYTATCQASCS

[3] = biological target: DPP IV (Homo sapiens, UniProt P27487); experiment: Stability against DPP IV enzyme; assay type: in vitro ADME; settings: 37° C.; for % degradation of peptidomimetics in 24 h when incubated with DPP-IV enzyme: 2 μM peptidomimetic; for half-life at 2 μM: DPP IV enzyme, pH 7.8, 2 μM peptidomimetic, read-out: half-life (t1/2) when incubated with DPP-IV enzyme
Chain of DPP IV (P27487 whole entry, species assumed): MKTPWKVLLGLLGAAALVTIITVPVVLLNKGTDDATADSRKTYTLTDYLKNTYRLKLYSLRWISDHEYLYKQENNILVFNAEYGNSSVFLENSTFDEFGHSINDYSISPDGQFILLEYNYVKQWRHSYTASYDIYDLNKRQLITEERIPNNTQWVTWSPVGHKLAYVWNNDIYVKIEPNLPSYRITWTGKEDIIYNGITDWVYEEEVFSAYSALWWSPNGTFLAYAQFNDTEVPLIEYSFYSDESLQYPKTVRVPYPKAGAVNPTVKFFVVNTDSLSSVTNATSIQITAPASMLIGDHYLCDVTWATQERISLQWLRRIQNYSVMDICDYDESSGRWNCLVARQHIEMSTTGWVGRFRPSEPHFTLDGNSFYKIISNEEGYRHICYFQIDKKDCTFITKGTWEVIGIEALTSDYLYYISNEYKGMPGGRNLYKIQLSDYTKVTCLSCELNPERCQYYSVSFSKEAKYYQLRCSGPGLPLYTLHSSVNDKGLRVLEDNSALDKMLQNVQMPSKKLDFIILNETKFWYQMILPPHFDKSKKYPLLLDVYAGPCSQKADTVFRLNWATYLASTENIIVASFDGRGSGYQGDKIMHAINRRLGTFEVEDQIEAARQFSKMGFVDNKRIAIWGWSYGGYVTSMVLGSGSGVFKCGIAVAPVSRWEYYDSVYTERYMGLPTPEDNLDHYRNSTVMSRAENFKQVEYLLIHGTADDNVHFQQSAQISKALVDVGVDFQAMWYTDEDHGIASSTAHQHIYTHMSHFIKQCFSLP
Procedure: as §1

[4] = test system: RIN5F (Rat Insulinoma) cells; experiment: In vitro glucose-dependent insulin secretion (RIN5F cell assay screening protocol); assay type: cell-based; settings: 16.7 mM glucose load
[5] = biological target: T2, human glucagon receptor (Homo sapiens, UniProt P47871); experiment: In vitro human glucagon antagonist activity (inhibition of cAMP production) in CHO/human glucagon R cells; assay type: cell-based; settings: with saturated concentration of glucagon peptide
T2 construct: The full-length cDNA was cloned in pcDNA3.1 (Invitrogen); expressed in transfected cells
T2 sequence (P47871 26-477): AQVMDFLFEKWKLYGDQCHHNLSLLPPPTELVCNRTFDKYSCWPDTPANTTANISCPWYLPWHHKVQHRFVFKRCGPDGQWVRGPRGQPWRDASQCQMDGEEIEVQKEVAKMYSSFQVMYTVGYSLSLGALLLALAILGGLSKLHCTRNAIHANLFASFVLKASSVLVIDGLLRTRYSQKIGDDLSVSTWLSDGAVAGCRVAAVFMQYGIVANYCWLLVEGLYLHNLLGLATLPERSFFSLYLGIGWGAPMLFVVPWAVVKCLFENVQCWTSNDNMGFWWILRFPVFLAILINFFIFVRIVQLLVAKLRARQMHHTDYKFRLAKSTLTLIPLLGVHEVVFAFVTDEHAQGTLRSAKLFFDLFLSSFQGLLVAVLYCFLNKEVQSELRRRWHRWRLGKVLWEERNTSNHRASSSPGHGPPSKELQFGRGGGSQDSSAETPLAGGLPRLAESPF

[6] = Stability in simulated intestinal fluid; assay type: in vitro ADME; settings: 2 μM peptidomimetic, simulated intestinal fluid pH 7.5, 37° C.; for half-life at 2 μM: read-out: half-life (t1/2) when incubated with simulated intestinal fluid
Procedure: as §1

[7] = Stability in liver microsomes; assay type: in vitro ADME; settings: 2 μM peptidomimetic, human liver microsomes, 37° C.; for half-life at 2 μM: pH 7.8, read-out: half-life (t1/2) when incubated with liver microsomes
Procedure: as §1

[8] = Stability in human plasma; assay type: in vitro ADME; settings: 2 μM peptidomimetic, pooled human plasma, 37° C.; for half-life at 2 μM: pH 7.8, read-out: half-life (t1/2) when incubated with human plasma
Procedure: as §1

Compound	% degradation of peptidomimetics in 24 h when incubated with simulated gastric fluid [1]	half-life at 2 μM [1]	Human GLP-1 R activity (cAMP release), % activity with respect to control ([2]; 1 nM test compound)	Human GLP-1 R activity (cAMP release), % activity with respect to control ([2]; 10 nM test compound)	Human GLP-1 R activity (cAMP release), % activity with respect to control ([2]; 100 nM test compound)	Human GLP-1 R activity (cAMP release), % activity with respect to control ([2]; 1 μM test compound)	Human GLP-1 R activity (cAMP release), % activity with respect to control ([2]; 10 μM test compound)	% degradation of peptidomimetics in 24 h when incubated with DPP-IV enzyme [3]	Insulin secretion ([4]; 0.1 nM test compd.)	Insulin secretion ([4]; 1 nM test compd.)	Insulin secretion ([4]; 10 nM test compd.)	Human Glucagon receptor antagonistic activity shown as inhibition of cAMP production of Glucagon peptide ([5]; 1 nM test compound)	Human Glucagon receptor antagonistic activity shown as inhibition of cAMP production of Glucagon peptide ([5]; 10 nM test compound)	Human Glucagon receptor antagonistic activity shown as inhibition of cAMP production of Glucagon peptide ([5]; 100 nM test compound)	Human Glucagon receptor antagonistic activity shown as inhibition of cAMP production of Glucagon peptide ([5]; 1 μM test compound)	Human Glucagon receptor antagonistic activity shown as inhibition of cAMP production of Glucagon peptide ([5]; 10 μM test compound)	% degradation of peptidomimetics in 24 h when incubated with simulated intestinal fluid [6]	half-life at 2 μM [6]	% degradation of peptidomimetics in 24 h when incubated with liver microsomes [7]	% degradation of peptidomimetics in 24 h when incubated with human plasma [8]	further results
CCc1cc(OC)ccc1-c1ccc(CC(NC(=O)[C@H](CC(=O)O)NC(=O)[C@H](CO)NC(=O)[C@@H](NC(=O)[C@H](Cc2ccccc2)NC(=O)[C@@H](NC(=O)CNC(=O)C(CCC#N)NC(=O)C(C)(C)NC(=O)[C@@H](N)Cc2c[nH]cn2)[C@@H](C)O)[C@@H](C)O)C(=O)NC(CCCc2ccccc2)C(N)=O)cc1 (single isomer, unassigned) [compound 29]	00%	> 24 h	96 ± 0.09%	99 ± 0.07%	99 ± 0.04%	99 ± 0.01%	99 ± 0.08%	00%	16.3 ± 0.15 pg/µg/h	22.4 ± 0.21 pg/µg/h	36.2 ± 0.11 pg/µg/h	20 ± 0.06 pmol/ml/μg prt	18 ± 0.09 pmol/ml/μg prt	16 ± 0.01 pmol/ml/μg prt	14 ± 0.03 pmol/ml/μg prt	12 ± 0.01 pmol/ml/μg prt	00%	> 24 h	32%	00%	half-life at 2 μM [3]: > 24 h; half-life (t1/2) when incubated with liver microsomes [7]: (5) h; half-life at 2 μM [8]: > 24 h
CCc1cc(OC)ccc1-c1ccc(CC(NC(=O)[C@H](CC(=O)O)NC(=O)[C@H](CO)NC(=O)[C@@H](NC(=O)C(C)(Cc2ccccc2F)NC(=O)[C@@H](NC(=O)CNC(=O)C(CCC#N)NC(=O)C(C)(C)NC(=O)[C@H](Cc2c[nH]cn2)NC(=O)OC)[C@@H](C)O)[C@@H](C)O)C(=O)NC(CCCc2ccccc2)C(N)=O)cc1 (single isomer, unassigned) [compound 206]	00%	> 24 h	39 ± 0.12%	80 ± 0.15%	86 ± 0.18%	95 ± 0.03%	98 ± 0.09%	00%	12.1 ± 0.42 pg/µg/h	14.6 ± 0.41 pg/µg/h	27.8 ± 0.46 pg/µg/h	0 pmol/ml/μg prt	0 pmol/ml/μg prt	0 pmol/ml/μg prt	0 pmol/ml/μg prt	0 pmol/ml/μg prt	00%	> 24 h	32%	00%	half-life at 2 μM [3]: > 24 h; half-life (t1/2) when incubated with liver microsomes [7]: (5) h; half-life at 2 μM [8]: > 24 h
CCc1cc(OC)ccc1-c1ccc(CC(NC(=O)[C@H](CC(=O)O)NC(=O)[C@H](CO)NC(=O)[C@@H](NC(=O)C(C)(Cc2ccccc2F)NC(=O)[C@@H](NC(=O)CNC(=O)C(CCC#N)NC(=O)C(C)(C)NC(=O)[C@@H](N)Cc2c[nH]cn2)[C@H](C)O)[C@@H](C)O)C(=O)NC(CCCc2ccccc2)C(N)=O)cc1 (single isomer, unassigned) [compound 110]	43%	4 h	38 ± 0.11%	77 ± 0.16%	85 ± 0.11%	94 ± 0.08%	97 ± 0.05%	00%	12.0 ± 0.14 pg/µg/h	14.3 ± 0.12 pg/µg/h	27.8 ± 0.32 pg/µg/h	18 ± 0.07 pmol/ml/μg prt	16 ± 0.01 pmol/ml/μg prt	12 ± 0.03 pmol/ml/μg prt	8 ± 0.02 pmol/ml/μg prt	6 ± 0.08 pmol/ml/μg prt	00%	> 24 h	84%	00%	half-life at 2 μM [3]: > 24 h; half-life at 2 μM [7]: 2 h; half-life at 2 μM [8]: > 24 h
CCc1cc(OC)ccc1-c1ccc(CC(NC(=O)[C@H](CC(=O)O)NC(=O)[C@H](CO)NC(=O)[C@@H](NC(=O)[C@H](Cc2ccccc2)NC(=O)[C@@H](NC(=O)CNC(=O)[C@H](CCC(N)=O)NC(=O)[C@H](CO)NC(=O)[C@@H](N)Cc2c[nH]cn2)[C@@H](C)O)[C@@H](C)O)C(=O)NC(CCCc2ccccc2F)C(N)=O)cc1 (single isomer, unassigned) [compound 45]	100%	0.5 h	51 ± 0.03%	86 ± 0.40%	91 ± 0.21%	99 ± 0.32%	99 ± 0.21%	77%	11.8 ± 0.50 pg/µg/h	14.9 ± 0.11 pg/µg/h	27.9 ± 0.31 pg/µg/h	15 ± 0.11 pmol/ml/μg prt	12 ± 0.13 pmol/ml/μg prt	8 ± 0.09 pmol/ml/μg prt	4 ± 0.01 pmol/ml/μg prt	2 ± 0.08 pmol/ml/μg prt	100%	0.5 h	100%	80%	half-life at 2 μM [7]: 0.5 h; half-life (t1/2) when incubated with human plasma [8]: (9) h
